Assay results taken from ChEMBL document CHEMBL3988442, “University of Dundee, Small-Polar-MMV Screening Library” (2021).

Assays:
[1] = system: Schistosoma mansoni; test: High throughput screening of compounds against Schistosoma mansoni motility; type: functional; set-up: dose or concentration left out as unconfirmed
[2] = target: ClpP1P2 (Mycobacterium tuberculosis (strain ATCC 25618 / H37Rv), UniProt P9WPC3+P9WPC5); test: in vitro assay to detect presence of AMC directly proportional to the activity of ClpP1P2. GHDDI collaboration.; type: functional
[3] = microbe, parasite or virus in culture; conditions: Mycobacterium tuberculosis, 96 h, read-out: pIC50 (converted)
[4] = microbe, parasite or virus in culture; conditions: Mycobacterium tuberculosis, 72 h, read-out: pIC50 (converted)
[5] = system: Plasmodium falciparum; test: Calibr Malaria Delayed Death Assay SOP; type: functional, organism-based; conditions: for IC50: Plasmodium falciparum

ClpP1P2, sequence (P9WPC5 whole entry): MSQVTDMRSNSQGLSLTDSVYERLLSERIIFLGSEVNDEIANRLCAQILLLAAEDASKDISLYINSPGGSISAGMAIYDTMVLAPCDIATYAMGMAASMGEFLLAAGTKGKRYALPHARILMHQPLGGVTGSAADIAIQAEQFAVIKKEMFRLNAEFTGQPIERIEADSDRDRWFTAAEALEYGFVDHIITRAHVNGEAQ
ClpP1P2, sequence (P9WPC3 whole entry): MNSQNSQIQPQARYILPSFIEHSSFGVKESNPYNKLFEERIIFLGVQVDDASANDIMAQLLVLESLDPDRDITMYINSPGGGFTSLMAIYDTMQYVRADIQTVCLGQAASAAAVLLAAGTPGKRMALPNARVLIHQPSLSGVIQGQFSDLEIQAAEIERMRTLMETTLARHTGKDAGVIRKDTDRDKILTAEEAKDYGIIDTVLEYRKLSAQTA

O=C(CN(Cc1cccnc1)CC1CCCO1)Nc1ccc(F)cc1 (configuration not stated)
Percent Effect [1]: -30.42%

O=C(c1ccc(Br)o1)N1CCCC(n2cncn2)C1 (configuration not stated)
Percent Effect [1]: -24.61%

CN(C)S(=O)(=O)N1CCN(c2nccc(C(F)(F)F)n2)CC1
Percent Effect [1]: -52.05%

O=C(CCCc1ccc(F)cc1)N1C[C@@H](CN2CCOCC2)[C@@H](CO)C1
Percent Effect [1]: -22.43%

CCOc1ccc(CN(C)C(=O)NC(C)c2nncn2C)cc1 (configuration not stated)
Percent Effect [1]: -46.5%

Cc1nc(C2CCCN(C(=O)c3sccc3C3CC3)C2)no1 (configuration not stated)
Percent Effect [1]: -33.52%

COC(=O)c1sccc1NC(=O)C1CCCN1C(=O)c1ccco1 (configuration not stated)
Percent Effect [1]: 1.887%

CC(Cn1cccn1)NC(=O)Nc1ccc(F)cc1 (configuration not stated)
Percent Effect [1]: -15.2%

COc1ccc(NC(C)C(=O)NCCc2cccs2)cc1F (configuration not stated)
Percent Effect [1]: -15.23%

Cc1occc1C(=O)N1CCC2(CCCN(CC3CCC3)C2=O)C1 (configuration not stated)
Percent Effect [1]: -40.66%

O=S(=O)(Cc1ccccc1)NCc1ccco1
Percent Effect [1]: -25.54%

Cc1cc(CC(=O)N2CCCC2c2nc(C(C)C)no2)on1 (configuration not stated)
Percent Effect [1]: -26.98%

CCCN1CCCn2nc(CNC(=O)CCc3scnc3C)cc2C1
Percent Effect [1]: 25.43%

CCCNC(=O)Cn1nc(C(C)C)c2cnn(C(C)(C)C)c2c1=O
Percent Effect [1]: -27.62%

CN(CCC(F)(F)F)C(=O)[C@H]1CSCN1C(=O)OC(C)(C)C
Percent Effect [1]: -27.39%

Cc1nc(CN2CCc3cncnc3C2)oc1C
Percent Effect [1]: -26.27%

Cc1cccc(CS(=O)(=O)NCC(O)Cc2ccccc2)c1 (configuration not stated)
Percent Effect [1]: 8.547%

CC(C)c1nc(CN(C)C2CCN(CC(F)(F)F)C2)no1 (configuration not stated)
Percent Effect [1]: -30.86%

CCCc1n[nH]c(C2CN(CCn3cccn3)CCO2)n1 (configuration not stated)
Percent Effect [1]: 4.257%

CCc1nnc2n1CC(CNCc1ccncc1)CC2 (configuration not stated)
Percent Effect [1]: -67.25%

N#Cc1ccc(CNCC2CCN(CCO)CC2)cc1
Percent Effect [1]: -28.87%

CCOCCN1CCN(Cc2nnc(C3CC3)o2)CC1CC (configuration not stated)
Percent Effect [1]: -4.218%

Cc1nccn1-c1cc(CNC(=O)C(C)(C)C)ccn1
Percent Effect [1]: -28.12%

CCc1noc(C(C)N(C)CC(=O)Nc2cccc(C)n2)n1 (configuration not stated)
Percent Effect [1]: 0.2571%

O=C(CCc1cscn1)NS(=O)(=O)c1ccc2c(c1)CCC2
Percent Effect [1]: 28.79%

COc1ccc(CNC(=O)NCC2CCOC2)c(C(F)(F)F)c1 (configuration not stated)
Percent Effect [1]: -32.81%

Cn1c(Cn2ccnc2)nnc1C1CCN(Cc2cccnc2N)CC1
Percent Effect [1]: -10.4%

Cc1cnn(CC2CN(CCc3ccncc3)CCO2)c1 (configuration not stated)
Percent Effect [1]: -83.94%

Cn1cc(-c2csc(N3CCOCC3)n2)cn1
Percent Effect [1]: 7.634%

Fc1ccccc1-c1noc2c1CN(CC1CC1)CC2
Percent Effect [1]: -95.25%

COc1ccc(Br)c(C(=O)NCC2CCN(C(=O)c3ccoc3)CC2)c1
Percent Effect [1]: -63.91%

Cc1ccc(F)c(OC2(C(=O)O)CCN(C(=O)N3CCCC3)CC2)c1
Percent Effect [1]: -4.164%

O=C(CCCc1cn[nH]c1)N1CCOCC(O)C1 (configuration not stated)
Percent Effect [1]: -19.59%

Cc1ncc(-c2nc3cc(S(=O)(=O)N4CCCC4)ccc3n2C)cn1
Percent Effect [1]: -72.39%

CC(CNC(=O)c1ccc(F)cc1Cl)N1CCCC1 (configuration not stated)
Percent Effect [1]: -36.02%

O=C(Cc1cccs1)NC1CCN(c2cccc(F)c2)CC1
Percent Effect [1]: -37.43%

CC(C)c1n[nH]c(C2CN(C(=O)CCCn3cccn3)CCO2)n1 (configuration not stated)
Percent Effect [1]: 21.88%

CCC1c2cccn2CCN1C(=O)c1ccc2nonc2c1 (configuration not stated)
Percent Effect [1]: -19.69%

Cl.NC(=O)COc1ccc(CNCc2ccc(F)cc2F)cc1
Percent Effect [1]: -10.97%

CN(C)C(=O)c1cccc(NC(=O)N(CCO)Cc2ccsc2)c1
Percent Effect [1]: -21.08%

Cc1cc(N2CCC(c3nnc(CN(C)C)n3C3CC3)CC2)ccn1
Percent Effect [1]: -0.2407%

COc1cc(CN2CCN(c3cccc(OC)c3)C(=O)C2)cc(OC)c1
Percent Effect [1]: -47.17%

CNC(=O)CS(=O)(=O)C1CCN(S(=O)(=O)c2ccccc2Br)CC1
Percent Effect [1]: -49.15%

CCn1c(N)nc2cc(C(=O)NCCc3sccc3C)cnc21
Percent Effect [1]: -77.79%

CS(=O)(=O)c1ccc(CNCC2CCN(CCO)CC2)cc1
Percent Effect [1]: -49.34%

Cc1nc[nH]c1CN1C[C@@H]2CC[C@H](C1)N(C(=O)CCc1cnn(C)c1)C2
Percent Effect [1]: -10.53%

Cl.O=C(Cc1ccc(F)cc1)N1CCN(CC(O)C2CC2)CC1 (configuration not stated)
Percent Effect [1]: -44.17%

Cn1cnnc1S(=O)(=O)C1CCN(S(=O)(=O)c2c(Cl)cccc2Cl)CC1
Percent Effect [1]: -2.116%

COc1ccc(C2CCCN2C(=O)NCCNc2ncccn2)cc1 (configuration not stated)
Percent Effect [1]: -55.34%

CCCOc1ccc(NC(=O)NCCC(=O)N(C)C)cc1Cl
Percent Effect [1]: -22.9%

Cc1cncc(C(=O)N2CCCC(C(=O)CCc3ccccc3)C2)c1 (configuration not stated)
Percent Effect [1]: -9.118%

CCc1nnc2n1CCN(C(=O)c1csc(-c3cnn(C)c3)n1)C2
Percent Effect [1]: -4.866%

Cn1nc(C(=O)N2CCCCC2c2nc3cc(F)ccc3[nH]2)ccc1=O (configuration not stated)
Percent Effect [1]: -12.79%

CC(C)(C)NC(=O)C1CSCN1S(=O)(=O)c1cccc(F)c1 (configuration not stated)
Percent Effect [1]: -27.85%

Cn1ncc2c(N3CCN(C(N)=O)CC3)nc(C3CCCC3)nc21
Percent Effect [1]: -18.38%

COC(=O)c1cc(OCC2CCC2)cc(C(=O)N[C@H]2CC[C@H](O)CC2)c1
Percent Effect [1]: -76.62%

O[C@@H]1CN(c2cnc3ccccc3n2)CC[C@H]1c1ccc2c(c1)OCO2
IC50 [2]: > 100 µM | IC50 [3]: 2.21 µM | IC50 [4]: 3.18 µM

CCn1cncc1CN1CCN(CC2(c3ccc(C)cc3)CC2)CC1.Cl
pIC50 [5]: 6 | IC50 [5]: 1.11 µM | IC50 [2]: > 100 µM

COCCN1CCC(CNC(=O)C2(c3ccc(Br)cc3)CCCC2)C1 (configuration not stated)
pIC50 [5]: 6.366 | IC50 [5]: 0.541 µM | IC50 [2]: > 100 µM

OCC1(CC2CCCCO2)CCN(c2cnc3ccccc3n2)CC1 (configuration not stated)
IC50 [2]: > 100 µM | IC50 [3]: 10.7 µM | IC50 [4]: 13.4 µM

CC(C)n1ccc(-c2cc(C(=O)NC3CC3)c3ccccn23)n1
IC50 [2]: > 100 µM | IC50 [3]: 14 µM | IC50 [4]: 16.5 µM

Cc1cc2nc(C(C)C)cc(N(C)CC3CCN(C(C)C)C3)n2n1 (configuration not stated)
IC50 [2]: > 100 µM | IC50 [3]: > 50.1 µM | IC50 [4]: > 50.1 µM

Cc1cc(C)c2cc(CNC3CCCCC3)c3nn(C)c(=O)n3c2c1
pIC50 [5]: 5.941 | IC50 [5]: 1.04 µM | IC50 [2]: > 100 µM

COc1cccc(C(C)Nc2ncnc3c2NC(=O)CN3)c1 (configuration not stated)
IC50 [2]: > 100 µM | IC50 [3]: > 50.1 µM | IC50 [4]: > 50.1 µM

CC(C)OCc1ccc(CNc2cncc(-n3cccn3)n2)cc1
IC50 [2]: > 100 µM | IC50 [3]: 17 µM | IC50 [4]: > 50.1 µM

COC(=O)CNC(=O)c1cn(-c2ccccn2)c(=O)c2ccccc12
IC50 [2]: > 100 µM | IC50 [3]: > 50.1 µM | IC50 [4]: > 50.1 µM

CCNc1cc2c(nn1)CCN(C(=O)c1ccoc1)C2
IC50 [2]: > 100 µM

COCc1nnc(NC(=O)CN2C(=O)c3ccccc3NC2C(C)C)s1 (configuration not stated)
IC50 [2]: > 100 µM

Cc1ccc(-c2nc(C3CCN(C(=O)c4cnn(C)c4)CC3)no2)cn1
IC50 [2]: > 100 µM

N#Cc1ccnc(N2CCC(c3nccn3Cc3cscn3)CC2)c1
IC50 [2]: > 100 µM

Cc1oc(C)c(C(=O)N2CCN(Cc3cscn3)CC2)c1C
IC50 [2]: > 100 µM

CC(=O)N1CCC(c2cc(C(F)(F)F)n3ccnc3n2)CC1
IC50 [2]: > 100 µM

O=C(CN1CCC2(CC1)NC(=O)c1cc(Br)ccc1N2)NC1CC1
IC50 [2]: > 100 µM

Cc1cnc(CCNc2cccc(CC3CCCNC3)n2)s1 (configuration not stated)
IC50 [2]: > 100 µM

Fc1cccc(CNc2cncc(-n3cccn3)n2)c1
IC50 [2]: > 100 µM

CS(=O)(=O)N1CC[C@]2(O)CCN(c3cc(C#N)ccn3)C[C@@H]2C1
IC50 [2]: > 100 µM

Cc1ccc(NC2CCN(C(=O)CCc3ccncc3)CC2)nn1
IC50 [2]: > 100 µM

COCCOc1ccc(CNc2cnc3ccccc3n2)cn1
IC50 [2]: > 100 µM

Cc1sc2ncc(-c3ccnc(NC4CCN(C)CC4)n3)c(=O)n2c1C
IC50 [2]: > 100 µM

c1ccc(Cc2nnc(CN3CCc4cncnc4C3)o2)cc1
IC50 [2]: > 100 µM

N#Cc1cccc(OCCN2CCNC(=O)C2c2cccs2)c1 (configuration not stated)
IC50 [2]: > 100 µM

O=C(c1cncc(N2CCC(O)(CO)CC2)n1)N1CCCC1
IC50 [2]: > 100 µM

CCN(CC)c1nc2sc(C(=O)N3CCNC(=O)C3)cc2s1
IC50 [2]: > 100 µM

CN(CCN1CCCCC1=O)Cc1cc2cc3c(cc2[nH]c1=O)OCO3
IC50 [2]: > 100 µM

Cc1cc(CN2CCN(C(=O)c3sccc3C3CC3)CC2)no1
IC50 [2]: > 100 µM

CC/N=c1\nc(NCC)nc2n1C(O)(Nc1cc(Cl)ccc1Cl)CS2 (configuration not stated)
IC50 [2]: > 100 µM

CCC(=O)NC1CCCN(c2cncc(OCc3ccccc3)n2)C1 (configuration not stated)
IC50 [2]: > 100 µM

COc1cccc(-c2cc(NCCO)nc3[nH]ccc23)n1
IC50 [2]: > 100 µM

O=C(NCC1CC1)c1c2c(N3CCCC3)ncnc2n2ccccc12
IC50 [2]: > 100 µM

Cc1csc2ncc(-c3ccnc(N4CCCN(C)CC4)n3)c(=O)n12
IC50 [2]: > 100 µM

CCOC1CCN(C(=O)NCCc2ccn(-c3ccccc3)n2)CC1
IC50 [2]: > 100 µM

Cn1cc(-c2nc(CNCCn3cccn3)cs2)cn1
IC50 [2]: > 100 µM

O=C(O)C1CN(c2cncc(Cc3ccccc3F)n2)C1
IC50 [2]: > 100 µM

CC(C)c1nnc(NC(=O)CN2C(=O)c3ccccc3NC2C(C)C)s1 (configuration not stated)
IC50 [2]: > 100 µM

CCN(CC)C(=O)CCNc1cncc(-n2nc(C)cc2C)n1
IC50 [2]: > 100 µM

Cc1n[nH]c(=O)c2c(NC(=O)CN3CCCC(C(F)(F)F)C3)oc(C)c12 (configuration not stated)
IC50 [2]: > 100 µM

CCSCCN1CCCN(S(C)(=O)=O)CC1
IC50 [2]: > 100 µM

Cc1nc(CN2CCCN(C(=O)c3sccc3C#N)CC2)cs1
IC50 [2]: > 100 µM

O=C(NC1CCC1)c1c2c(N3CCCC3)ncnc2n2ccccc12
IC50 [2]: > 100 µM

Cc1nc(C(=O)N2CCC(c3cc(CCO)n(C)n3)C2)co1 (configuration not stated)
IC50 [2]: > 100 µM

CN(C)c1ncc(-c2cc(C(=O)N3CCCC3)n(CC3CC3)c2)cn1
IC50 [2]: > 100 µM

COc1ccc2cc(CN(C)CCc3cn[nH]c3)c(=O)[nH]c2c1
IC50 [2]: > 100 µM

c1cc2nc(C3CCNCC3)nn2cc1NC1CCC1
IC50 [2]: > 100 µM

CC(C)c1nnc2n1CCN(Cc1csc(CC(=O)N(C)C)n1)C2
IC50 [2]: > 100 µM

Cc1ccc(CN2CCC3(C2)C(=O)N(CC2CC2)c2ccccc23)s1 (configuration not stated)
IC50 [2]: > 100 µM

O=C1C(Nc2ccc3nccnc3n2)CCN1c1ccccc1F (configuration not stated)
IC50 [2]: > 100 µM

CC(C)c1nnc(CNC2CCCN(Cc3noc(C4CC4)n3)C2)o1 (configuration not stated)
IC50 [2]: > 100 µM
